Like-named read-outs stand apart in the source and are kept apart here.
Legend:
[1] = cited from earlier work
LNCaP = experiment: Cell-Titer Glo viability, LNCaP; assay type: cell-based, human; settings: for effect on cell killing by 10 μM Abiraterone: 10, 20 and 40 μM SB203580 (FIG. 13B)
Method: (§1) Twenty four hours later, the indicated concentration of BI2536 and R1881 were added, representing time zero. Viability of the prostate cancer cells was assessed using Cell-Titer Glo™ according to the manufacturer's instructions.
(§2) Cell viability was assessed after 5 days using Cell-Titer Glo™ according to the manufacturer's instructions.
(§3) Cell viability was assessed after 4 days using Cell-Titer Glo™ according to the manufacturer's instructions.
Experiments were conducted to investigate the role of the p38MAPK-MK2 pathway in prostate cancer, Western blotting was used to investigate up-regulation of MK3 and MK5 protein levels in LNCaP cells after MK2 knock down using shRNA.

C4-2 = experiment: Cell-Titer Glo viability, C4-2; assay type: cell-based, human; settings: for relative levels of proliferation: 5 nM BI2536, 10 μM abiraterone, alone or in combination, FBS, 5 days post-administration (FIG. 4); for effect on cell killing by 10 μM Abiraterone: 10, 20 and 40 μM SB203580 (FIG. 13B)
Method: as §1
Viability was measured for the subsequent five days using Cell-Titer Glo™ according to the manufacturer's instructions.
as §2, §3

PSA expression = PSA expression by qPCR in C4-2 CRPC cells; assay type: cell-based, human; settings: 10 μM abiraterone, 5 nM BI2536, alone or combined; 24 hours; FBS (FIG. 8)
Excerpt: RNA was isolated for analysis by qPCR.

HCT 116 xenografts = settings: cited from earlier work
BxPC-3 = settings: twice-weekly; cited from earlier work
A549 = settings: twice-weekly; cited from earlier work
[2] = cited from earlier work; remark: listed apart in the source
[3] = other studies; cited from earlier work
[4] = cited from earlier work; remark: listed apart in the source
[5] = test system: panel of >50 other kinases; settings: concentrations up to 10 μM, in vitro; cited from earlier work
[6] = test system: multiple human carcinoma xenografts including HCT 116, NCI-H460, and taxane-resistant CXB1 colon carcinoma; settings: ~25 mg/kg/day; cited from earlier work
[7] = in combination with afatinib; cited from earlier work
[8] = cited from earlier work; remark: listed apart in the source
22 RV1 = experiment: Cell-Titer Glo viability, 22 RV1; assay type: cell-based; settings: for effect on cell killing by 10 μM Abiraterone: 10, 20 and 40 μM SB203580 (FIG. 13B)
Method: Cell viability of PCa cell lines to increasing doses (10, 20 and 40 μM) of the p38MAPK inhibitor SB203580, as measured using Cell Titer Glo (FIG. 13A).

xenograft tumor models = settings: under proper dose scheduling; cited from earlier work
cell culture = settings: cited from earlier work
[9] = cited from earlier work; remark: listed apart in the source
Plk1 = Plk1 (Homo sapiens, UniProt P53350); settings: cited from earlier work
[10] = test system: various human tumor cell lines; settings: cited from earlier work
mouse xenograft models = settings: 10 mg/kg and 20 mg/kg on days 1 and 28; cited from earlier work
[11] = cited from earlier work; remark: listed apart in the source
[12] = 24 to 48 mg/m^2 for 5 consecutive days every 4 weeks; cited from earlier work
cell mitosis = settings: read-out: EC50 inhibition of cell mitosis; cited from earlier work
[13] = test system: Cdc25C-T96 phosphorylation; settings: read-out: EC50 Cdc25C-T96 phosphorylation; cited from earlier work
[14] = test system: cell lines, representative of both solid and hematological tumors; settings: cited from earlier work
[15] = target: several tyrosine kinases and cyclin-dependent kinase 1 (Cdk1); settings: cited from earlier work
[16] = test system: Bel-7402, MCF-7, and MIA-PaCa cells; settings: 250 mg/kg; cited from earlier work
BT20 cells = settings: 200 mg/kg; cited from earlier work
[17] = cited from earlier work; remark: listed apart in the source
[18] = test system: HT-29 human colorectal tumors; settings: cited from earlier work
[19] = test system: several tumor cell lines, including those that express multidrug-resistant protein 1 (MDR1); settings: cited from earlier work
[20] = increasing concentrations of BI2536, csFBS (FIG. 3A)

Plk1, sequence (P53350 whole entry): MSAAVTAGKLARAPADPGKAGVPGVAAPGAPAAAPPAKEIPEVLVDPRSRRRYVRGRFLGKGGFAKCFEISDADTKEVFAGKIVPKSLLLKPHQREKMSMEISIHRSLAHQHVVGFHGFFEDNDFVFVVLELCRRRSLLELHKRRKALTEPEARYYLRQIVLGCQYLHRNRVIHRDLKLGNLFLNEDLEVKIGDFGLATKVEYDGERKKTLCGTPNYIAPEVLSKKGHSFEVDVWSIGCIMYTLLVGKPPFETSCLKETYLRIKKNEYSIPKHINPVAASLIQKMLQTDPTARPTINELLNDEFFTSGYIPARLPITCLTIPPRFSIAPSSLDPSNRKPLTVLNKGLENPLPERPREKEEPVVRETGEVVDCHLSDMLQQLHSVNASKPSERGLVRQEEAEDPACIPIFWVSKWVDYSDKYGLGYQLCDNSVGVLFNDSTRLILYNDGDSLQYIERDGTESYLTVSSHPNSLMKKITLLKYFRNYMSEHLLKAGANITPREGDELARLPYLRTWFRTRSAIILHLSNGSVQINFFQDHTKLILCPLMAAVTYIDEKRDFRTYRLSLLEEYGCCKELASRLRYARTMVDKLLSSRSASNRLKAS

SMILES: CC(=O)O[C@H]1CC[C@@]2(C)C(=CC[C@@H]3[C@@H]2CC[C@]2(C)C(c4cccnc4)=CC[C@@H]32)C1 [Abiraterone acetate, abiraterone acetate]
- solubility in water [1]: practically insoluble in water

SMILES: CC[C@@H]1C(=O)N(C)c2cnc(Nc3ccc(C(=O)NC4CCN(C)CC4)cc3OC)nc2N1C1CCCC1 [BI2536]
- proliferation over time (LNCaP; 5 nM BI2536, csFBS (FIG. 3B)): reduced
- viability (LNCaP; [20]): reduced
- relative levels of proliferation (C4-2): reduced over time
- proliferation over time (C4-2; 5 nM BI2536, csFBS (FIG. 3B)): reduced
- viability (C4-2; [20]): reduced
- PSA expression (PSA expression): did not suppress PSA expression
- T/C (HCT 116 xenografts; 50 mg/kg once per week): 15%
- T/C (HCT 116 xenografts; 50 mg/kg twice per week): 0.3%
- T/C (BxPC-3): 5%
- T/C (A549): 14%
- maximum tolerated dose ([2]; day 1 schedule): 350 mg
- maximum tolerated dose ([2]; days 1+8 schedule): 200 mg
- MTD [3]: 50 to 70 mg
- safety profile ([4]; 200 mg combined with standard-dose pemetrexed): acceptable safety profile
- dose-limiting toxicities (DLT) ([4]; 325 mg with pemetrexed): grade 3 pruritus and rash; grade 4 neutropenia
- maximum tolerated dose (MTD) ([4]; in combination with 500 mg/m^2 pemetrexed, day 1 every 3 weeks, intravenous): 300 mg

SMILES: CC[C@@H]1C(=O)N(C)c2cnc(Nc3ccc(C(=O)N[C@H]4CC[C@H](N5CCN(CC6CC6)CC5)CC4)cc3OC)nc2N1C(C)C [BI6727]
- inhibitory activity against a panel of >50 other kinases [5]: no inhibitory activity
- growth of xenografts [6]: significantly inhibits the growth
- MTD [7]: 300 mg
- DLTs ([8]; i.v. once every 3 weeks, 12-450 mg): neutropenia, thrombocytopenia, and febrile neutropenia
- MTD ([8]; i.v. once every 3 weeks): 400 mg
- recommended dose for further development based on overall tolerability ([8]; in vivo): 300 mg

SMILES: CC(=O)O[C@@]12CO[C@@H]1C[C@H](O)[C@@]1(C)C(=O)[C@H](O)C3=C(C)[C@@H](OC(=O)[C@H](O)[C@@H](NC(=O)OC(C)(C)C)c4ccccc4)C[C@@](O)([C@@H](OC(=O)c4ccccc4)[C@H]21)C3(C)C [Docetaxel, docetaxel]
- synergy with Abiraterone (% viability) (LNCaP; 5 nM docetaxel, increasing abiraterone, 4 days, FBS (FIG. 7A)): did not synergize with Abiraterone
- synergy with Abiraterone (% viability) (C4-2; 5 nM docetaxel, increasing abiraterone, 4 days, csFBS (FIG. 7C)): did not synergize with Abiraterone
- synergy with Abiraterone (% viability) (22 RV1; 5 nM docetaxel, increasing abiraterone, 4 days, csFBS (FIG. 7B)): did not synergize with Abiraterone

SMILES: C[C@@H](Oc1cc(-n2cnc3ccc(CN4CCN(C)CC4)cc32)sc1C(N)=O)c1ccccc1C(F)(F)F [GSK461364]
- effect in xenograft tumor models (xenograft tumor models): tumor regression
- nature of cell culture growth inhibition (cell culture): cytostatic or cytotoxic
- DLTs ([9]; in vivo): grade 4 neutropenia, sepsis, and pulmonary embolism
- incidence of venous thrombotic emboli ([9]; in vivo): 20%
- final recommended phase II dose ([9]; intravenously, schedule A (days 1, 8, and 15 of 28-day cycle)): 225 mg

SMILES: COc1ccc(S(=O)(=O)Nc2ccccc2/C=C/c2cc[n+]([O-])cc2)cc1 [HMN-176]
- direct inhibition of the enzymatic activity of Plk1 (Plk1): does not directly inhibit the enzymatic activity of Plk1
- cytotoxicity [10]: potent cytotoxicity
- antitumor activity (mouse xenograft models): potent antitumor activity

SMILES: COc1ccc(S(=O)(=O)N(C(C)=O)c2ccccc2/C=C/c2cc[n+]([O-])cc2)cc1 [HMN-214]
- dose-limiting toxicities ([11]; 9.9 mg/m^2/d): severe myalgia/bone pain syndrome and hyperglycemia
- maximum tolerated dose and recommended dose ([11]; continuous 21-day dosing schedule every 28 days): 8.0 mg/m^2/d
- DLTs [12]: prolonged neutropenia, febrile neutropenia, neutropenic sepsis, electrolyte disturbance, neuropathy, and myalgia

SMILES: Cc1ncc(CCCN(C)C)cc1Nc1ncc2c(n1)-c1ccc(C(F)(F)F)cc1NC(=S)C2 [MLN0905]
- EC50 (cell mitosis): 9 nM
- EC50 [13]: 29 nM

SMILES: CN1CCN(c2ccc(OC(F)(F)F)c(Nc3ncc4c(n3)-c3c(c(C(N)=O)nn3CCO)CC4)c2)CC1 [NMS 1286937]
- potency in proliferation assays [14]: low nanomolar activity

SMILES: COc1cc(OC)c(/C=C/S(=O)(=O)Cc2ccc(OC)c(NCC(=O)[O-])c2)c(OC)c1.[Na+] [ON 01910]
- IC50 [15]: 18 to 260 nM
- tumor growth [16]: inhibited tumor growth
- tumor growth (BT20 cells): inhibition of tumor growth
- DLT ([17]; at the MTD): Grade 3 abdominal pain
- MTD ([17]; i.v. days 1, 4, 8, 11, 15, and 18 in 28-day cycles): 3,120 mg

SMILES: C[C@]1(O)CC[C@H]2[C@@H]3CCC4=CC(=O)CCC4=C3C=C[C@@]21C [R1881]
- proliferation over time in the presence of BI2536 and synthetic androgen (LNCaP; 5 nM BI2536, csFBS (FIG. 3B)): somewhat rescued
- viability in the presence of BI2536 and synthetic androgen (LNCaP; csFBS (FIG. 3A)): somewhat rescued
- proliferation over time in the presence of BI2536 and synthetic androgen (C4-2; 5 nM BI2536, csFBS (FIG. 3B)): somewhat rescued
- viability in the presence of BI2536 and synthetic androgen (C4-2; csFBS (FIG. 3A)): somewhat rescued

SMILES: COc1cc(C(=O)NC2CCN(C)CC2)ccc1Nc1ncc2c(n1)N(C1CCCC1)CC(F)(F)C(=O)N2C [RO3280]
- antitumor activity ([18]; dosed more frequently): complete tumor regression
- tumor growth inhibition ([18]; once weekly at 40 mg/kg): 72%

SMILES: C[S+]([O-])c1ccc(-c2nc(-c3ccncc3)c(-c3ccc(F)cc3)[nH]2)cc1 (centres unmarked) [SB203580]
- cell death, p38MAPK inhibition alone (LNCaP; 10, 20 and 40 μM (FIG. 13A)): small amounts of cell death
- effect on cell killing by 10 μM Abiraterone (LNCaP): additive
- effect on cell killing by 10 μM Abiraterone (LNCaP; listed as p38MAPK inhibitor): modestly enhanced
- cell death, p38MAPK inhibition alone (C4-2; 10, 20 and 40 μM (FIG. 13A)): small amounts of cell death
- effect on cell killing by 10 μM Abiraterone (C4-2): additive
- effect on cell killing by 10 μM Abiraterone (C4-2; listed as p38MAPK inhibitor): modestly enhanced
- cell death, p38MAPK inhibition alone (22 RV1; 10, 20 and 40 μM (FIG. 13A)): small amounts of cell death
- effect on cell killing by 10 μM Abiraterone (22 RV1): additive
- effect on cell killing by 10 μM Abiraterone (22 RV1; listed as p38MAPK inhibitor): modestly enhanced

SMILES: COc1cc(C(=O)NC2CCN(C)CC2)c(F)cc1Nc1ncc2c(n1)N(C1CCCC1)CC(F)(F)C(=O)N2C [TAK-960]
- activity in tumor cell lines [19]: has shown activity

SMILES: C[C@]12CC[C@H](O)CC1=CC[C@@H]1[C@@H]2CC[C@]2(C)C(c3cccnc3)=CC[C@@H]12 [abiraterone]
- relative levels of proliferation (C4-2): reduced over time
- sensitivity to Abiraterone in the absence of BI2536 (C4-2; five days, csFBS): relatively resistant
- sensitivity to Abiraterone in the absence of BI2536 (22 RV1; five days, csFBS): relatively resistant
- PSA expression (PSA expression): substantially decreased

— patent US12115171B2, “Combination therapies and methods of use thereof for treating cancer” (Massachusetts Institute of Technology, priority 2014, dated 2024)
